# “And” between values parts separate entries of the source, which are not always exact repeats. Equal entries are not always repeated. “Also recorded” adds a separate entry of the source.
# Legend:
# HCT116 = assay: MTT anti-proliferative assay, HCT116; type: cell-based; settings: Homo sapiens, HCT-116, mean ± SD of three independent experiments
# Description: (§1) Doxorubicin (DOX) was used as a reference drug.
# (§2) Cell lines were obtained from ATCC via Holding company for biological products and vaccines (VACSERA), Cairo, Egypt. Doxorubicin (Dox.) is used as a standard anticancer drug. This colorimetric assay is based on the conversion of yellow (MTT) to a purple formazan derivative by mitochondrial succinate dehydrogenase in viable cells. This colorimetric assay was performed according to the reported method[36],[37].
# MCF7 = assay: MTT anti-proliferative assay, MCF7; type: cell-based; settings: Homo sapiens, mean ± SD of three independent experiments
# Description: as §1, §2
# HepG-2 cells [1] = assay: Cell cycle analysis by PI flow cytometry; type: cell-based, human
# Description: Cell cycle analysis for compound 5a was performed using the HepG-2 cell lines stained with propidium iodide (PI) and FACSCalibur flow cytometer as mentioned in previous reports.
# HepG-2 cells [2] = assay: Annexin V-FITC/Propidium iodide dual staining apoptosis assay; type: cell-based, human; settings: HepG-2, 24 h
# Description: Liver HepG-2 cancer cells were used in the Annexin V-FITC/Propidium iodide dual staining assay[40] to calculate the percentage of apoptosis induced by compound 5a. As shown in Figs. 6 and Fig. 7, compound 5a induces the early apoptosis in HepG-2 after 24 h incubation by (19.61%) 41.72 folds over the untreated cells (0.47%). Also, it enhances the late apoptotic induction by 11.89% compared to untreated control (0.16%). Cumulatively, compound 5a induced total apoptosis (35.28%) 14.57 folds over the untreated cells (2.42%).
# Apoptosis induction for 5a was performed using the HepG-2 cell lines and well-established Annexin 5-FITC/PI detection kit similar to the reported procedures.
# [3] = test system: BAX, BCL-2, Cyto c, Casp. 6, 7, 9 and Survivin in HepG-2 cells; assay: RT-PCR gene expression of apoptotic markers; type: cell-based, human; settings: HepG-2, control = 1
# Description: The B cell lymphoma-2 (Bcl-2) family of proteins, which includes pro-apoptotic (Bax, Bak, Bid, and Bad) and anti-apoptotic (Bcl-2, Bcl-xL, and Bcl-w) proteins, mediates the mitochondrial or intrinsic apoptosis pathway. These proteins cause apoptosis by influencing the permeability of the mitochondrial membrane, which results in the release of cytochrome c into the cytosol. The Bax/Bcl-2 ratio is frequently employed as a marker of cell death and is essential for controlling mitochondrial cytochrome c release. It is thought that caspases perform critical functions in modulating the mitochondrial pathway. After cytochrome c is released into the cytosol, caspase-9 is triggered. Caspase-9 can activate effector caspases, such as caspase-3, 6 and 7, which cause cells to enter apoptosis. The various target proteins that the effector caspases cleave are widely dispersed throughout the cell, which causes the morphological modifications that are indicative of apoptosis. Apoptosis is inhibited by the anti-apoptotic protein survivin, which regulates the actions of caspase-9 and effector caspases.
# Gene expression analysis was performed by using (iScriptTM OneStep RT-PCR Kit with SYBR® Green) from Bio-Rad according to reported procedure.
# HepG-2 cells [4] = assay: Intracellular ROS accumulation assay (ELISA); type: cell-based, human
# Description: Under both physiological and pathological circumstances, reactive oxygen species (ROS) such H2O2 and superoxides play a significant role in the activation of apoptosis. It's interesting to note that mitochondria both produce and absorb ROS.
# Intracellular reactive oxygen species (ROS) were detected by the EIAab ROS ELISA kit according to the reported method.
# HER2 = HER2 (Homo sapiens, UniProt P04626); assay: HER2 inhibition assay
# HER3 = HER3 (Homo sapiens, UniProt P21860); assay: HER3 inhibition assay
# HER4 = HER4 (Homo sapiens, UniProt Q15303); assay: HER4 inhibition assay
# EGFR-TK = EGFR-TK (Homo sapiens, UniProt P00533); assay: EGFR-TK inhibition assay
# HePG-2 = assay: MTT anti-proliferative assay, HepG-2; settings: Homo sapiens, HepG2, read-out: IC50 HePG-2
# WI-38 = assay: MTT cytotoxicity against normal fibroblast cells WI-38; settings: Homo sapiens, WI-38, read-out: IC50 WI-38
# HER2, sequence (P04626 23-1255): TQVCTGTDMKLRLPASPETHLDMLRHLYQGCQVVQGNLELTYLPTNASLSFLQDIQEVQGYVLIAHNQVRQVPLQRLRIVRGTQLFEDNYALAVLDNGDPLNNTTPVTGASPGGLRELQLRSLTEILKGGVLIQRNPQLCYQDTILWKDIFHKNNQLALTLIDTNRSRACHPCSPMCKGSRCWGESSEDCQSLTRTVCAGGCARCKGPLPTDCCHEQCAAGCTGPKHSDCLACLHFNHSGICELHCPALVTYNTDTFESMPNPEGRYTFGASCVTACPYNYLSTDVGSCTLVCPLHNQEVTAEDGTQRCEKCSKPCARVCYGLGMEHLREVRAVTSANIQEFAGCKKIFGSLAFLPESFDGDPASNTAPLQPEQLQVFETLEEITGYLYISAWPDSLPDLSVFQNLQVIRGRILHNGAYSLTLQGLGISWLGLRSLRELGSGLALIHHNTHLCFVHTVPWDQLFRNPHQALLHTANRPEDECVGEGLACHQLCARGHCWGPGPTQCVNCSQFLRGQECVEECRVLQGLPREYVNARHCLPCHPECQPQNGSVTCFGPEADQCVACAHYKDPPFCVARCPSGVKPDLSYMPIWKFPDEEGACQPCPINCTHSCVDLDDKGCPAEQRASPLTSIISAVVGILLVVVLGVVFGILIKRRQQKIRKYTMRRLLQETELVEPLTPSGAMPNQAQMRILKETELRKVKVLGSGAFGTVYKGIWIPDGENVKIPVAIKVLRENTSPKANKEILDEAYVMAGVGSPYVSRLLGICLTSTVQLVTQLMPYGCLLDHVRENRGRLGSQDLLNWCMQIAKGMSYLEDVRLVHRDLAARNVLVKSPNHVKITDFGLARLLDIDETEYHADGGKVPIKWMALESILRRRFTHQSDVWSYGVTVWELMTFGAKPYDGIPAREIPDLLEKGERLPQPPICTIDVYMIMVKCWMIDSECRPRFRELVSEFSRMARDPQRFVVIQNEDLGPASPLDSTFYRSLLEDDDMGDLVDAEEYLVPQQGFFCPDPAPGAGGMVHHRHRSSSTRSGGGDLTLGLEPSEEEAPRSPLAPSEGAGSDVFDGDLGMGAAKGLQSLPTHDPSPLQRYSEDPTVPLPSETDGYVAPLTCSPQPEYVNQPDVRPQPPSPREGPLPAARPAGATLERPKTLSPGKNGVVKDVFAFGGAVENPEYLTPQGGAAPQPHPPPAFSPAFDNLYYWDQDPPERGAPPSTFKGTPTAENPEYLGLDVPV
# HER4, sequence (Q15303 26-1308): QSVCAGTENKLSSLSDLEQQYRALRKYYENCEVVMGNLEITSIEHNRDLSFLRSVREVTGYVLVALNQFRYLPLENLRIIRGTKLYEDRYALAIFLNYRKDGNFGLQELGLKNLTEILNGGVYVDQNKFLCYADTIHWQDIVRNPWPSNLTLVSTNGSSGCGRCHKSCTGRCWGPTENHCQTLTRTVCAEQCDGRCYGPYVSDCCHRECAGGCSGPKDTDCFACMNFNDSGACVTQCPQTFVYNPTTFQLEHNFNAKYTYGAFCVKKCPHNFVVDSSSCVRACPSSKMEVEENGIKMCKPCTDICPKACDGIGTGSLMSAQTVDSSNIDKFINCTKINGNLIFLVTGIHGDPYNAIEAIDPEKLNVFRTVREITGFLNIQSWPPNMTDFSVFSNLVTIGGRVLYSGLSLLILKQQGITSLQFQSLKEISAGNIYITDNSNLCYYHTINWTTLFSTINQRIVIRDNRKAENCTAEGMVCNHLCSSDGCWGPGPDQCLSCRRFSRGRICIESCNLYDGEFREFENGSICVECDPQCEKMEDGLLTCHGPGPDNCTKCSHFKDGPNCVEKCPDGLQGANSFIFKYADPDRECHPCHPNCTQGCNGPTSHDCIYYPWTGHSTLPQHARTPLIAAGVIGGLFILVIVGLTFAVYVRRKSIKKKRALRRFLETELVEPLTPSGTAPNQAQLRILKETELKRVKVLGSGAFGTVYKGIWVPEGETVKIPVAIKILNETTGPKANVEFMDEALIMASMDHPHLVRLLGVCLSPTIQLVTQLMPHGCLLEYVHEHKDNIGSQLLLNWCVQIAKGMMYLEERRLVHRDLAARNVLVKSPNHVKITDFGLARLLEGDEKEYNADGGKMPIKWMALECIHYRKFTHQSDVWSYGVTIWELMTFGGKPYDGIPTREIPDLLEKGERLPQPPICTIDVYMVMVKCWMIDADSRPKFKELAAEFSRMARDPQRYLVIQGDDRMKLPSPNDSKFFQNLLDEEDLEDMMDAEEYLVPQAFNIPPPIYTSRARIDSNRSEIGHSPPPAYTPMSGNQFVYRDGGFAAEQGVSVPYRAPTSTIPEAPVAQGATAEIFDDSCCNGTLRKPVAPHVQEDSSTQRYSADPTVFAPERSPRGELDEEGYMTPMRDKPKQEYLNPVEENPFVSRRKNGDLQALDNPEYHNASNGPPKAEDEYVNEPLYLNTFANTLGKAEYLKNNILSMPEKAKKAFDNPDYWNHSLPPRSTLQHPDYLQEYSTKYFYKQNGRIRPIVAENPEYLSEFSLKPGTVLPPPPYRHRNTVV
# EGFR-TK, sequence (P00533 25-1210): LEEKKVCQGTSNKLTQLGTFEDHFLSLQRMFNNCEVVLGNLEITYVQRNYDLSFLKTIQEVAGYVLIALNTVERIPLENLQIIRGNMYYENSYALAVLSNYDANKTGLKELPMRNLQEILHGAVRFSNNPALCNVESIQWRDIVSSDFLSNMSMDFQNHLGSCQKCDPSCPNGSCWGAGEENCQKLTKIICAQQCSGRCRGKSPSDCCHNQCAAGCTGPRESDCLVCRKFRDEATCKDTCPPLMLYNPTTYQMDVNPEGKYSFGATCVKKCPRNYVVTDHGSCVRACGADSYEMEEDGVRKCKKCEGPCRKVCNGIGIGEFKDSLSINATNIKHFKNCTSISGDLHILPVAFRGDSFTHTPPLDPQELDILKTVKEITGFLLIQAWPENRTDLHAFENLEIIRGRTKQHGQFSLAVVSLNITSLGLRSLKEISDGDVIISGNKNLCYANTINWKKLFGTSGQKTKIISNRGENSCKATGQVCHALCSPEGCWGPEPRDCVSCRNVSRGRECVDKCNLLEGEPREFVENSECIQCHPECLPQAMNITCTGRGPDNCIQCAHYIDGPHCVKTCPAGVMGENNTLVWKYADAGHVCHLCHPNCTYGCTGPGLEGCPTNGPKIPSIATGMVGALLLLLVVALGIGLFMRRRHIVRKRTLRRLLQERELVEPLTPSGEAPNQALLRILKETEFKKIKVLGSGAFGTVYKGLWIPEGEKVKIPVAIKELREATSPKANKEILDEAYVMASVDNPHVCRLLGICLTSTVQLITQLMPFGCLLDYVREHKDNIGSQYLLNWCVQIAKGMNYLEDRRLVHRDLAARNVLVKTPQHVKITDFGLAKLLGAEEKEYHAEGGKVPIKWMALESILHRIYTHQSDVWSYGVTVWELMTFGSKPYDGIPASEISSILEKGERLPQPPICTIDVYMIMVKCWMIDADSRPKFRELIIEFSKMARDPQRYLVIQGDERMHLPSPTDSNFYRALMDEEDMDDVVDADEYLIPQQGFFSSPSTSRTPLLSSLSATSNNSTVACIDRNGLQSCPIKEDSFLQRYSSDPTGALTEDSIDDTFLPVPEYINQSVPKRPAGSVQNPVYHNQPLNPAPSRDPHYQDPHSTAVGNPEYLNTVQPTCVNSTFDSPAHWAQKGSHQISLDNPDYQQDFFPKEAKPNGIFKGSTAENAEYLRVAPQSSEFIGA
# HER3, sequence (P21860 20-1342): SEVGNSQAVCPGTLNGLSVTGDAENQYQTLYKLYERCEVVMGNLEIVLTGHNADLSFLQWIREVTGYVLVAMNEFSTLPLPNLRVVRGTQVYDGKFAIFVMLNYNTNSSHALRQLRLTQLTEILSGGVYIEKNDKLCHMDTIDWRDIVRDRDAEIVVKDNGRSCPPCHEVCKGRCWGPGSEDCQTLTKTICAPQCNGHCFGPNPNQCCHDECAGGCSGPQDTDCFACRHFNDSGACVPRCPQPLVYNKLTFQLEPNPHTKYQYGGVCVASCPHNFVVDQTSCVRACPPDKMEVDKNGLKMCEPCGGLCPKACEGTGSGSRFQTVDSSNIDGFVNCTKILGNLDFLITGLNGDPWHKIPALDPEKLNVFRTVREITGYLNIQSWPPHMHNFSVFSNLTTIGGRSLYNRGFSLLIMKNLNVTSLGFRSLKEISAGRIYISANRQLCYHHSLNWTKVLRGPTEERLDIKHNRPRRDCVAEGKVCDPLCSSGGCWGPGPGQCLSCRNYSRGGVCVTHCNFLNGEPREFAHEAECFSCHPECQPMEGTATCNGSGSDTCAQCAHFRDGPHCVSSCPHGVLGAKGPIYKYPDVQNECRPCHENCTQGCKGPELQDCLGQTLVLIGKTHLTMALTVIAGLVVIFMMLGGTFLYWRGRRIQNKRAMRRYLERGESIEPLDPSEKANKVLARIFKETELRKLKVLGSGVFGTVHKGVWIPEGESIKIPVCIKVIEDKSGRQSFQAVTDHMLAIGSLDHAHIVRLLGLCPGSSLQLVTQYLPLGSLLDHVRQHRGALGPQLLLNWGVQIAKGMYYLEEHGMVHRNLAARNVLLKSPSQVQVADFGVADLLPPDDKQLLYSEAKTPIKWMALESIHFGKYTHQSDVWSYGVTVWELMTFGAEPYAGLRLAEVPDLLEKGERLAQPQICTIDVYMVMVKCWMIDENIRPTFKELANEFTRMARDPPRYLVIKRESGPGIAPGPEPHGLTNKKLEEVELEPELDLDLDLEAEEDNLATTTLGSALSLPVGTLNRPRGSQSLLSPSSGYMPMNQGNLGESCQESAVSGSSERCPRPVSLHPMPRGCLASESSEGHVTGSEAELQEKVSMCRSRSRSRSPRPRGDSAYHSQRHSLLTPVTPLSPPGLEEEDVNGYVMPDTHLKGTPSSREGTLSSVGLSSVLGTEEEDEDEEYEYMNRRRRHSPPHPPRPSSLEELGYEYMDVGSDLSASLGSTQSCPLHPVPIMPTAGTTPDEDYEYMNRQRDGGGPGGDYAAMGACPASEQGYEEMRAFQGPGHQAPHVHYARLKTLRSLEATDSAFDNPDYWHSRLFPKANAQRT
structure (smiles),measurement,setting,value
"c1ccc(COc2ccc(-c3nnc(SCc4ccccc4)o3)cc2)cc1 [Compound 5a, 2-(4-(Benzyloxy)phenyl)-5-(benzylthio)-1,3,4-oxadiazole]",IC50,HCT116,64.4 ± 3.7 µM
same,IC50,MCF7,78.5 ± 4.1 µM
same,Comment (cell cycle arrest phase),"HepG-2 cells [1]; HepG-2, 24 h",arrested the cell cycle on HepG-2 at a G1/S phase; also recorded: cell cycle arrest at G1/S phase; also recorded: cell growth arrest at G1/S
same,%G2/M,"HepG-2 cells [1]; HepG-2, IC50 concentration, 24 h, untreated control 17.05",6.64%
same,%S,"HepG-2 cells [1]; HepG-2, IC50 concentration, 24 h, untreated control 37.09",41.03%
same,%G0-G1,"HepG-2 cells [1]; HepG-2, IC50 concentration, 24 h, untreated control 45.86",52.33%
same,"early apoptosis, folds over the untreated cells",HepG-2 cells [2],41.72 folds
same,"total apoptosis, folds over the untreated cells",HepG-2 cells [2],14.57 folds
same,late apoptosis (Q2),HepG-2 cells [2]; untreated 0.16%,11.89%
same,early apoptosis (Q4),HepG-2 cells [2]; untreated 0.47%,19.61%
same,RT-PCR Fold Change Bax,[3],4.95 fold
same,RT-PCR Fold Change Casp. 6,[3],6.67 fold
same,RT-PCR Fold Change Casp. 7,[3],7.57 fold
same,RT-PCR Fold Change Casp. 9,[3],4.23 fold
same,RT-PCR Fold Change Cyto c,[3],3.82 fold
same,ROS,"HepG-2 cells [4]; HepG-2, mean ± SD of three experiments, control 105.6 ± 10.8",247.8 pg/mL and 247.8 ± 31.1 pg/mL
same,ROS Fold,"HepG-2 cells [4]; HepG-2, versus control = 1",2.34 fold
same,IC50,HER2,0.72 ± 0.028 µM
same,IC50,HER3,0.18 ± 0.006 µM
same,IC50,HER4,0.37 ± 0.015 µM
same,IC50,EGFR-TK,0.09 µM
same,IC50,HePG-2,35.6 ± 2.2 µM
same,IC50,WI-38,53.9 ± 3 µM

# Source: paper PMC10915170, “New oxadiazole and pyrazoline derivatives as anti-proliferative agents targeting EGFR-TK: design, synthesis, biological evaluation and molecular docking study” (Scientific Reports, 2024)
